# Assays:
# [1] = target: Casein kinase I isoform gamma-1 (Homo sapiens) (UniProt Q9HCP0); conditions: at 10 µM
# [2] = target: Sodium-dependent dopamine transporter (Homo sapiens, UniProt Q01959); experiment: Selectivity interaction (Eurofins CEREP Diversity Profile (receptors and ion channels)) EUB0000279b SLC6A3; conditions: at 10 µM
# [3] = target: T1, Tyrosine-protein kinase Tec (Homo sapiens) (UniProt P42680); experiment: Selectivity interaction (Ambit KINOMEscan and KiNATiv profiling in Jurkat cells) EUB0000090b TEC; assay type: cell-based; conditions: at 1 µM
# T1 sequence (whole entry): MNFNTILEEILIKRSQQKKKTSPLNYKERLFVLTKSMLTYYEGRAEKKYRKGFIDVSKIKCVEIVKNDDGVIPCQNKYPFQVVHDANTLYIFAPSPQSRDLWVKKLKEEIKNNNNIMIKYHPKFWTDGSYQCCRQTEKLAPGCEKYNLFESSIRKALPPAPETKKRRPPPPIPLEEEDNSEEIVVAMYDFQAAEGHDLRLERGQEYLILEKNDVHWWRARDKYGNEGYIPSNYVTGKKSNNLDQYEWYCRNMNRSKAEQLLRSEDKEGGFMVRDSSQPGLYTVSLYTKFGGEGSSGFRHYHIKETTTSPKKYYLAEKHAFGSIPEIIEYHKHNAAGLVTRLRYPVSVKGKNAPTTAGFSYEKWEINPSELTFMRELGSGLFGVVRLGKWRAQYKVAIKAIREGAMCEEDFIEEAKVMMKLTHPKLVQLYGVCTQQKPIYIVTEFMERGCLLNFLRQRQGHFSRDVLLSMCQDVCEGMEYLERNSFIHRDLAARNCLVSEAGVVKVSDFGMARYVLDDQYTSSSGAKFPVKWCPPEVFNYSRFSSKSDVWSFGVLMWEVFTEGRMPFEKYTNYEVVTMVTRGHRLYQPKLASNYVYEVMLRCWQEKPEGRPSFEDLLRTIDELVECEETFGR
# [4] = target: MAP kinase-interacting serine/threonine-protein kinase 1 (Homo sapiens) (UniProt Q9BUB5); experiment: Selectivity interaction (KinomeScan (DiscoverX)) EUB0001079a MKNK1; conditions: at 1 µM
# [5] = target: Cyclin-dependent kinase 7 (Homo sapiens, UniProt P50613); experiment: Selectivity interaction (KinomeScan (DiscoverX)) EUB0000618a CDK7; conditions: at 10 µM
# [6] = target: Calcium/calmodulin-dependent protein kinase type 1G (Homo sapiens) (UniProt Q96NX5); experiment: Selectivity interaction (KinomeScan (DiscoverX)) EUB0000607a CAMK1G; conditions: at 10 µM
# [7] = target: Serine/threonine-protein kinase/endoribonuclease IRE1 (Homo sapiens) (UniProt O75460); experiment: Selectivity interaction (Kinase panel (KiNativ target engagement assay in Jurkat cells)) EUB0001635a ERN1; assay type: cell-based; conditions: Selectivity number of off-targets 0.0, Selectivity number of targets 233.0, Source Knowledge https://www.sciencedirect.com/science/article/pii/S2451945619300674?via%3Dihub, at 1 µM
# [8] = target: Microtubule-associated serine/threonine-protein kinase 3 (Homo sapiens) (UniProt O60307); experiment: Selectivity interaction (Kinase panel (KiNativ target engagement assay in Jurkat cells)) EUB0001635a MAST3; assay type: cell-based; conditions: Selectivity number of off-targets 0.0, Selectivity number of targets 233.0, Source Knowledge https://www.sciencedirect.com/science/article/pii/S2451945619300674?via%3Dihub, at 1 µM
# [9] = target: Fibroblast growth factor receptor 3 (Homo sapiens, UniProt P22607); experiment: Selectivity interaction (Kinase panel (Invitrogen)) EUB0000639a FGFR3; conditions: at 200 nM
# [10] = test system: Tyrosine-protein kinase ABL1 (Homo sapiens), P00519 [E255K]; experiment: (§1) Selectivity interaction (KinomeScan (DiscoverX)) EUB0001049a ABL1; conditions: at 1 µM
# [11] = test system: Tyrosine-protein kinase ABL1 (Homo sapiens), P00519 [F317I]; experiment: as §1; conditions: at 1 µM
# [12] = test system: Tyrosine-protein kinase ABL1 (Homo sapiens), P00519 [F317L]; experiment: as §1; conditions: at 1 µM
# [13] = test system: Tyrosine-protein kinase ABL1 (Homo sapiens), P00519 [H396P]; experiment: as §1; conditions: at 1 µM
# [14] = test system: Tyrosine-protein kinase ABL1 (Homo sapiens), P00519 [M351T]; experiment: as §1; conditions: at 1 µM
# [15] = test system: Tyrosine-protein kinase ABL1 (Homo sapiens), P00519 [Q252H]; experiment: as §1; conditions: at 1 µM
# [16] = test system: Tyrosine-protein kinase ABL1 (Homo sapiens), P00519 [T315I]; experiment: as §1; conditions: at 1 µM
# [17] = test system: Tyrosine-protein kinase ABL1 (Homo sapiens), P00519 [Y253F]; experiment: as §1; conditions: at 1 µM
# [18] = target: Tyrosine-protein kinase ABL1 (Homo sapiens, UniProt P00519); experiment: as §1; conditions: at 1 µM
# [19] = target: T2, Muscle, skeletal receptor tyrosine-protein kinase (Homo sapiens) (UniProt O15146); experiment: Selectivity interaction (KinomeScan (DiscoverX)) EUB0000666a MUSK; conditions: at 10 µM
# T2 sequence (whole entry): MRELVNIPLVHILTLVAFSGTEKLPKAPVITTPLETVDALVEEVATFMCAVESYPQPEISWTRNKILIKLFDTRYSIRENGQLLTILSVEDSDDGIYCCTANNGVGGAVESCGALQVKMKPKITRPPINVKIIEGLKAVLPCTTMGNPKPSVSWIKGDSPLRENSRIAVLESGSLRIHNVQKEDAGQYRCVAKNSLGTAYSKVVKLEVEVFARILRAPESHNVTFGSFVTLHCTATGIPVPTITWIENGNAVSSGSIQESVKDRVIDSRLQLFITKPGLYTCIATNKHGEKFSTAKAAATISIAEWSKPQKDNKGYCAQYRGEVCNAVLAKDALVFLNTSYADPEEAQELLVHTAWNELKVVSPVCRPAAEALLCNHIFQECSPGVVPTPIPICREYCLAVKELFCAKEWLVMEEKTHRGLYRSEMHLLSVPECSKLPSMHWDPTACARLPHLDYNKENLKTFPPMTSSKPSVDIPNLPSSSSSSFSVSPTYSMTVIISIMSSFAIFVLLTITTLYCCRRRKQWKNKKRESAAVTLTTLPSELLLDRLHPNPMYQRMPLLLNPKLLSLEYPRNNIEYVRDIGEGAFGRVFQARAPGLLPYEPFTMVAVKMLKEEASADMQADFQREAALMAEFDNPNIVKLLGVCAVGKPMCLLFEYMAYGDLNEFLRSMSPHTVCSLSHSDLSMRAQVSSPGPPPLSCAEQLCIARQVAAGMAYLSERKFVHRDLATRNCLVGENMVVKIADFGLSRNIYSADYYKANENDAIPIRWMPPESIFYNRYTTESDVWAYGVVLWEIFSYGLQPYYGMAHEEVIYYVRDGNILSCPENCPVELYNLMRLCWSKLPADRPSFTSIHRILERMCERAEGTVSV
# [20] = target: Serine/threonine-protein kinase 16 (Homo sapiens, UniProt O75716); experiment: Selectivity interaction (KinomeScan (DiscoverX)) EUB0000092b STK16; conditions: at 10 µM
# [21] = target: Myosin-IIIa (Homo sapiens) (UniProt Q8NEV4); experiment: Selectivity interaction (KinomeScan (DiscoverX)) EUB0000695a MYO3A; conditions: at 100 nM
# Sequence of Myosin-IIIa (Homo sapiens) (Q8NEV4 whole entry): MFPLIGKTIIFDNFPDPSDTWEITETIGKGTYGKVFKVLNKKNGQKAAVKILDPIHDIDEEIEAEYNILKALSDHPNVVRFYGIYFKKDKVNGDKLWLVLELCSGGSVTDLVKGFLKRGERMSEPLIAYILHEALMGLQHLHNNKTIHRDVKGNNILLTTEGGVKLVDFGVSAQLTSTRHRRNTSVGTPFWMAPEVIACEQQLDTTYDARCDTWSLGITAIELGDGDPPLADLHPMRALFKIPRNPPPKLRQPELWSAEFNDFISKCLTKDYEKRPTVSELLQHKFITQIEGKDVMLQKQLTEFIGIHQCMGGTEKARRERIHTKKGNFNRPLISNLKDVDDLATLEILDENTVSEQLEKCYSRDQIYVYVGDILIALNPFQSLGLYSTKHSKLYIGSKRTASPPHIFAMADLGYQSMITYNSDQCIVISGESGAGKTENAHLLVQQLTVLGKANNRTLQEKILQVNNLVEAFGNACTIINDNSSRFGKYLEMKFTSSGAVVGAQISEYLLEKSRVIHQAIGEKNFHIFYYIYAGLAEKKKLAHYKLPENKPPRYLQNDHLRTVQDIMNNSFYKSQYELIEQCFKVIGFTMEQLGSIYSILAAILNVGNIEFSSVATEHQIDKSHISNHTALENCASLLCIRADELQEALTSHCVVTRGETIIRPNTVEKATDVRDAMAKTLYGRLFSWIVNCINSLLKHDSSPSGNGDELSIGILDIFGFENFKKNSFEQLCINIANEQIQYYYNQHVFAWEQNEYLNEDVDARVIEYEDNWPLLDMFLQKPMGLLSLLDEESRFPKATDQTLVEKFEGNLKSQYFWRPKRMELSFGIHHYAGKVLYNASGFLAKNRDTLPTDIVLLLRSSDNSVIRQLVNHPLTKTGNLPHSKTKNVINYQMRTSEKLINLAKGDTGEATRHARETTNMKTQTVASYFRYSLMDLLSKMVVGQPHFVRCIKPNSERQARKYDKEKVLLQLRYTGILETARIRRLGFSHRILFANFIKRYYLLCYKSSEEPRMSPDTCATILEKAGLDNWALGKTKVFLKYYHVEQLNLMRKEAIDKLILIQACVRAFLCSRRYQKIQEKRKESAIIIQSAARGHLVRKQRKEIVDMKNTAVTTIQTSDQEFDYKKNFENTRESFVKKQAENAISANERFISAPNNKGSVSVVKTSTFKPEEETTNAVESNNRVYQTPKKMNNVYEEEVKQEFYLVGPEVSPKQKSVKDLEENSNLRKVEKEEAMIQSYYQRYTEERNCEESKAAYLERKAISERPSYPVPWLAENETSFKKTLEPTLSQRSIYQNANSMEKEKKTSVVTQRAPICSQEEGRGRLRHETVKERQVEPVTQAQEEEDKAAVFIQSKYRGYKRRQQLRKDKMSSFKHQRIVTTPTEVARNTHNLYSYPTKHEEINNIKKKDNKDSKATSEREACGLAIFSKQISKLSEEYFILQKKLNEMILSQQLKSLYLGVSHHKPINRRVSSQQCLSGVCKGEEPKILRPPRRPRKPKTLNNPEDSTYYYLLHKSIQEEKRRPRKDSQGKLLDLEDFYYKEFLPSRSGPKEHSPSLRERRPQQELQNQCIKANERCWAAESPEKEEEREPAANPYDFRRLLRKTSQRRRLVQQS
# Sequence of Fibroblast growth factor receptor 3 (P22607 23-806 limits assumed): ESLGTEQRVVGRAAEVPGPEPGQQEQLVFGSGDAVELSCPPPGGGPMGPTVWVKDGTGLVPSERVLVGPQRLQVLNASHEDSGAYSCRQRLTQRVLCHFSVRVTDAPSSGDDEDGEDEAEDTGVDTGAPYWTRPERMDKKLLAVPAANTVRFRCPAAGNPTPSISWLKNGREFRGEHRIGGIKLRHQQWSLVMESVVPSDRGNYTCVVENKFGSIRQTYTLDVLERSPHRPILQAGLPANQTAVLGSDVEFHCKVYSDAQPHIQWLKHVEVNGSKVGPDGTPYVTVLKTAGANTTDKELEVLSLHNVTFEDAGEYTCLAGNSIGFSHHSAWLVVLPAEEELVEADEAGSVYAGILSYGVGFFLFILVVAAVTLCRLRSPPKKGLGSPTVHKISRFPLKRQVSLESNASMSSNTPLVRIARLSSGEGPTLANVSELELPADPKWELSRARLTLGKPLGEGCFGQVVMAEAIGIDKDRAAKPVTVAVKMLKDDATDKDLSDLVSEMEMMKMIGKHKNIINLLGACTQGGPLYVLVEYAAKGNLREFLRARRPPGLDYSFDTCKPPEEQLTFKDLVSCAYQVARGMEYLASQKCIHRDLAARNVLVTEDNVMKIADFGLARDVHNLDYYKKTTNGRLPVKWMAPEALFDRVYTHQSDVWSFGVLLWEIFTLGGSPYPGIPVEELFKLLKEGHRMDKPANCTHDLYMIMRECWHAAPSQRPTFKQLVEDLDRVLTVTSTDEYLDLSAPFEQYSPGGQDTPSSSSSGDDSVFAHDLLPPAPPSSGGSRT
# Sequence of Casein kinase I isoform gamma-1 (Homo sapiens) (Q9HCP0 whole entry, looked up, canonical isoform): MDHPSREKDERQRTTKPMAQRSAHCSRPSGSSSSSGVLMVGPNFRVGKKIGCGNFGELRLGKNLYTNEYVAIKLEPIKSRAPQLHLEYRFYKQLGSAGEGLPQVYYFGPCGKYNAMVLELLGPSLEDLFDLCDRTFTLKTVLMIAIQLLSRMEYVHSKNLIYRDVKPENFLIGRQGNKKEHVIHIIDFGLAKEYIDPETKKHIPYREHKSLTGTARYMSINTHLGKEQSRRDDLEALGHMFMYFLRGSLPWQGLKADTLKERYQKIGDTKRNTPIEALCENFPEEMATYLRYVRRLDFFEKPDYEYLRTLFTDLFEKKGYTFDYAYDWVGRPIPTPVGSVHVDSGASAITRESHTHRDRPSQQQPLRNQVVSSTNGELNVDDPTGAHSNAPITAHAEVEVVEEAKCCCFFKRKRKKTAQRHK
# Sequence of Cyclin-dependent kinase 7 (P50613 whole entry): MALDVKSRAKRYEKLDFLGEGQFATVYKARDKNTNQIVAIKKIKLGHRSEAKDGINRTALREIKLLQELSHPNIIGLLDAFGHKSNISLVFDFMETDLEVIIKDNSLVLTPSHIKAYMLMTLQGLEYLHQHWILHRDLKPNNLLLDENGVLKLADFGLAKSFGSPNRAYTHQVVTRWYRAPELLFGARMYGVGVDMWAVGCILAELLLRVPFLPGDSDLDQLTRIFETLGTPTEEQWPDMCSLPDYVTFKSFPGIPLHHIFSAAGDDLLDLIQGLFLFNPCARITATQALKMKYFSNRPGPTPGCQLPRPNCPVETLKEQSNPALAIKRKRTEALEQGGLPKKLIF
# Sequence of Microtubule-associated serine/threonine-protein kinase 3 (Homo sapiens) (O60307 whole entry): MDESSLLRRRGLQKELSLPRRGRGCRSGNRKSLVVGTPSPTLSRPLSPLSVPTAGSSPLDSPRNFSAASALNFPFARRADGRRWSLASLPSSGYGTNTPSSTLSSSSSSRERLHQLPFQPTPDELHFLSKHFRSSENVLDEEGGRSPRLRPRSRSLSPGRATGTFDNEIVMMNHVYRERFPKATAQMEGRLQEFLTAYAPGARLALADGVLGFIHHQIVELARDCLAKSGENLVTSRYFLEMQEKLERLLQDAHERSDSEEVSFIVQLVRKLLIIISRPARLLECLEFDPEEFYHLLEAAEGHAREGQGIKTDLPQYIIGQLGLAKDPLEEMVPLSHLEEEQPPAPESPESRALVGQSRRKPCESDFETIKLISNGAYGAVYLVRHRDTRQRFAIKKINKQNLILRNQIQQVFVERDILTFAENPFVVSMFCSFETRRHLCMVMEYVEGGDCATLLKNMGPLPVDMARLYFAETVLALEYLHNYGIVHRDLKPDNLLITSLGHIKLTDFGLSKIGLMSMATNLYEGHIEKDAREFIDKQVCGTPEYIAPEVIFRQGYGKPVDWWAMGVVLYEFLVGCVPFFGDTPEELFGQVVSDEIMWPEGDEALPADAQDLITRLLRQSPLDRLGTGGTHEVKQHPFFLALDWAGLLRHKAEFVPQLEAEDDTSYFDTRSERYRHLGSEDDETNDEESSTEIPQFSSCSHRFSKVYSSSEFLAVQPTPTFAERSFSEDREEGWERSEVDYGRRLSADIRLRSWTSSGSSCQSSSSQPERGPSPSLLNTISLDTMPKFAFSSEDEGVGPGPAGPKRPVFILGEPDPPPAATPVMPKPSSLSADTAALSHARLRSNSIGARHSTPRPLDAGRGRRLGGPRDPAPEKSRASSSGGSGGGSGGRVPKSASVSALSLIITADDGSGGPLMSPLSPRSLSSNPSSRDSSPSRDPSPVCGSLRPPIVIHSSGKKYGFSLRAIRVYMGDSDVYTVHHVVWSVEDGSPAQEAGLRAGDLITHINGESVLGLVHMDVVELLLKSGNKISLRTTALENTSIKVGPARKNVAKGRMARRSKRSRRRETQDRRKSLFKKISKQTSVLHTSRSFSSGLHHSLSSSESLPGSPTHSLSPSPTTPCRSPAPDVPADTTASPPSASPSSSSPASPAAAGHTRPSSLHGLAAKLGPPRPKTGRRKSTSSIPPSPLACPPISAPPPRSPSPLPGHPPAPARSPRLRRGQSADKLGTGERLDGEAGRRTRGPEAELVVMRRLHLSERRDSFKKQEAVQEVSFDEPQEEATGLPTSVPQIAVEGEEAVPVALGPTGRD
# Sequence of Sodium-dependent dopamine transporter (Q01959 whole entry): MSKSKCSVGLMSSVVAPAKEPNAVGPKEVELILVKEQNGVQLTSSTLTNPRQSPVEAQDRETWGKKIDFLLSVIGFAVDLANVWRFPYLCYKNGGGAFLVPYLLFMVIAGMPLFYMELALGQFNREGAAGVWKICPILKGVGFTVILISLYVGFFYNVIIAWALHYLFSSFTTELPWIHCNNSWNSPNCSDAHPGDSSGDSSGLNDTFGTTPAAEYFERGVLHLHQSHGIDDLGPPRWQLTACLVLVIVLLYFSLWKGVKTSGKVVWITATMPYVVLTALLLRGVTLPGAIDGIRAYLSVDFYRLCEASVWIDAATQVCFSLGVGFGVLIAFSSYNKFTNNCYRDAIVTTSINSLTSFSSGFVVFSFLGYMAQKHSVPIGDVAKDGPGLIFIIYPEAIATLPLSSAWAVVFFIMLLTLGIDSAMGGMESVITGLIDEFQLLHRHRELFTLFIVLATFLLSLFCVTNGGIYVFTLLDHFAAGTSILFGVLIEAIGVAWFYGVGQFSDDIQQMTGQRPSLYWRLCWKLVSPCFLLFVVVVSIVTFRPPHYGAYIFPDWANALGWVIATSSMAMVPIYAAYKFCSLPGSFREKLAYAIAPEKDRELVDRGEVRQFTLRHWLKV
smiles,measurement,setting,value
CCN(CC)CCCCNc1ncc2cc(-c3cc(OC)cc(OC)c3)c(NC(=O)NC(C)(C)C)nc2n1,% of control,[1],100%
CC(=O)c1cc(-c2ccccc2OCC2CC2)c2ncccn12,% of control,[2],80%
CN(C)C/C=C/C(=O)Nc1ccc(C(=O)N2CCCC(Nc3ncc(Cl)c(-c4c[nH]c5ccccc45)n3)C2)cc1 (stereo unspecified),% of control,[3],99%
Nc1cnc(N2CCc3cc(S(=O)(=O)Nc4c(F)cc(Cl)cc4F)cc(N4CCCC4=O)c32)nc1 [TP-020n],% of control,[4],98%
O[C@H]1CC[C@H](Nc2ncc3nc(Nc4c(F)cc(F)cc4F)n([C@H]4CCOC4)c3n2)CC1,% of control,[5],100%
CNC(=O)Nc1ccc(-c2nc(N3CC4CCC(C3)O4)c3cnn(C4CCC5(CC4)OCCO5)c3n2)cc1,% of control,[6],100%
C=CC(=O)Nc1ccc(C(=O)Nc2[nH]nc3c2CN(C(=O)N[C@H](CN(C)C)c2ccccc2)C3(C)C)cc1,% of engagement,[7],-0.9%
same,% of engagement,[8],-0.8%
CC[C@@H]1[C@H](F)C(=O)N[C@@H]1COc1nccc2cc(C(N)=O)c(OC)cc12 [ZIMLOVISERTIB],% of inhibition,[9],-0.438%
COc1cc(Nc2nc(C)cc(-c3cnn4nc(OC)ccc34)n2)cc(C(F)(F)F)c1,% of control,[10],86%
same,% of control,[11],97%
same,% of control,[12],92%
same,% of control,[13],64%
same,% of control,[14],99%
same,% of control,[15],68%
same,% of control,[16],75%
same,% of control,[17],70%
same,% of control,[18],63%
O=C(NOC[C@H](O)CO)c1ccc(F)c(F)c1Nc1ccc(I)cc1F,% of control,[19],68%
CCC(=O)N1CCN(c2ccc(-n3c(=O)ccc4cnc5ccc(-c6cnc7ccccc7c6)cc5c43)cc2C(F)(F)F)CC1,% of control,[20],18%
Cc1cc(F)c(C(=O)Nc2cccc(-c3nncn3C(C)C)n2)cc1-n1cnc(C2CC2)c1,% of control,[21],100%

# — ChEMBL document CHEMBL5465560, “Selectivity Literature for EUbOPEN Chemogenomic Library” (2024)
